Results from US10905704B2, “Agents and methods using thereof for the prevention and treatment of stem cell muscle disorders” (ECOLE POLYTECHNIQUE FEDERALE DE LAUSANNE (EPFL), priority 2015, dated 2021).

How the values were obtained:
[1] = test system: MuSCs; assay: MuSC autofluorescence (405/450) as measure of relative NAD(P)H, cellular redox ratio; type: cell-based; details: MuSCs isolated from NR-treated Mdx mice, FIG. 6G-I
Description: Determining cellular redox ratio. NAD+ and NADH quantification and ratio were measured using a kit from Biovision (Milpitas, Calif.), following providers' instructions. With continuous muscle regeneration, MuSCs in Mdx mice are abnormally active at a young age, leading to MuSC depletion and dysfunction later in life. […] Thus the self-renewal capacity of Mdx mouse MuSCs was tested. The cellular redox ratio decreases as MuSCs differentiate (Fulco et al., 2003, Molecular Cell, 12: 51), which can be detected by the increase in 405/450 autofluorescence (Quinn et al., 2013, Scientific Reports, 3: 3432). […] We then performed β-galactosidase staining on primary MuSCs isolated from Mdx mice, with or without NR treatment, and cultured these cells with NR or vehicle in vitro. […] The prevention of MuSCs senescence in NR-treated Mdx mice was confirmed by the attenuation of γH2AX and cleaved caspase-3 immunostaining (FIG. 6K). To evaluate MuSC function, CTX-induced muscle regeneration was examined in NR-treated mice.

[2] = test system: MuSCs; assay: Senescence and apoptosis marker staining of MuSCs from NR-treated mice (γH2AX, β-galactosidase, cleaved CASP3); type: cell-based, C57BL/6J mice
Description: Histology. TA muscles were harvested and the immunestaining was performed as described in Example 2. The following antibodies were used: anti-γH2AX […] (Millipore), anti-activated-caspase3 (Cell signaling). Secondary antibodies were coupled to Alexa-488 or Alexa-568 fluorochromes (Life technology), and nuclei were stained with DAPI (Invitrogen). β-galactosidase assay. MuSCs were sorted directly and cultured primary MuSCs were grown on 8 chamber slides (Thermo Scientific). Senescence-associated β-galactosidase activity was detected using the senescence β-galactosidase staining kit (Cell signaling), according to manufacturer's instructions. Cell culture and treatments. FACS sorted MuSCs were grown on a 10% Matrigel (Corning)-coated dish and flasks with Fams F-10 media (Gibco), supplemented with 20% fetal bovine serum (FBS, Gibco), 2.5 ng/ml basic fibroblast growth factor (bFGF, Sigma) and penicillin/streptomycin (1×, Gibco). Dishes were coated with 10% growth factor-free Matrigel solution on ice for 7 min then transferred to a 37° C. cell culture incubator overnight before use. Cells were grown for three generations in vitro before experiments with cells plated and passaged at 10^3 cells/ml and 50% confluencies, respectively. C2C12 mouse myoblasts were grown in DMEM (4.5 g/1 glucose, Gibco) supplemented with 10% FBS and penicillin/streptomycin (1×, Gibco).

[3] = test system: tibialis anterior (TA) muscle; assay: Cardiotoxin-induced muscle damage, regeneration of TA muscle; type: in vivo, C57BL/6J mice; details: for PAX7-positive MuSCs after CTX-induced damage: 7 days after CTX
Description: Cardiotoxin-induced muscle damage. Animals were anesthetized using Isoflurane in oxygen from a precision vaporizer. 50 μl of 20 μM Naje mossambica mossambica cardiotoxin (Sigma) was injected intramuscularly cross the skin and directly into the tibialis anterior (TA) muscle. Mice were sacrificed at 7 and 14 days after injury. TA muscles were immediately embedded in Thermo Scientific™ Shandon™ Cryomatrix™ and frozen in isopentane, cooled in liquid nitrogen, for 2 mins before being transferred to dry ice and stored at −80° C.
Histology. TA muscles were harvested from anaesthetized mice and immediately frozen in Tissue-TEK® OCT compound (PST). 8-μm cryosections were collected and fixed with 4% paraformaldehyde, which are either stained with haematoxylin/eosin (HE) or antibodies. For immunostainings, heat activated antigen retrieval was performed in pH 6.0 citrate buffer for 10 min at 65° C. After washing with PBS-0.1% tween 20 (PBST), the sections were blocked with 10% affinipure Fab goat anti mouse IgG (Jackson Immunoresearch) in PBST for 60 min and PBST containing 2% BSA and 5% goat serum for 30 min at room temperature. Primary antibodies were then applied over night at 4° C. The following antibodies were used: anti-eMHC (Developmental Studies Hybridoma Bank, DSHB, University of Iowa), anti-Pax7 (DSHB, University of Iowa), anti-Laminin (Sigma). Subsequently, the slides were washed in PBST and incubated with appropriate secondary antibodies and labeling dyes. For immunofluorescence, secondary antibodies were coupled to Alexa-488 or Alexa-568 fluorochromes (Life technology), and nuclei were stained with DAPI (Invitrogen). After washing in PBST, tissue sections were mounted with Dako mounting medium (Dako).

[4] = test system: C2C12 myoblasts; assay: Western blot of UPRmt markers, prohibitins and cell cycle proteins in NR-treated C2C12 myoblasts; type: cell-based, mouse
Description: Western blotting performed as described in Example 3. The following primary antibodies were used: anti-HSP60 (Enzo Life Science); anti-β-actin (Sigma); anti-PHB (Biolegend); anti-PHB2 (Santa Cruz); anti-CKD4 (Novus biologicals); anti-CCND1 (Santa Cruz); anti-CCND3 (Santa Cruz); anti-HSP90 (BD Biosciences); HSP70 (Abcam); and anti-CLPP (Sigma). Cell culture and treatments were prepared according to description of Example 3. C2C12 mouse myoblasts were grown in DMEM (4.5 g/1 glucose, Gibco) supplemented with 10% FBS and penicillin/streptomycin (1×, Gibco). Cell transformation with Phb (Santa Cruz) and Phb2 shRNA (Santa Cruz) were performed using jetPEI DNA transfection kit (Polyplus), according to manufacturer's instructions. Cells were treated with 1 mM NR or PBS for 6 hours before cell harvesting or fixation. Respirometry on C2C12 myoblasts. Basal and uncoupled oxygen consumption rates (OCRs) and the extracellular acidification rate (ECAR) was measured using the Seahorse extracellular flux bioanalyzer (XF96, Seahorse Bioscience Inc.). To uncouple mitochondria, 5 uM of FCCP was injected after a basal respiration measurement. All measurements were performed in triplicates and results were normalized to total protein amount (C2C12 cells), assessed using a Bradford kit (Bio-Rad).

[5] = MuSCs from NR-treated mice cultured ex vivo for three generations

SMILES: NC(=O)c1ccc[n+]([C@@H]2O[C@H](CO)[C@@H](O)[C@H]2O)c1 [NR, nicotinamide riboside]
- 405/450 autofluorescence of MuSCs [1]: significant reduction in autofluorescence
- cleaved caspase-3 (CASP3) immunostaining [2, 5]: reductions
- γH2AX positive nuclei [2, 5]: reductions
- γH2AX positive nuclei ([2]; freshly isolated MuSCs from aged mice, NR diet, FIG. 4A,B): staining was reduced
- β-galactosidase staining (senescence) ([2]; freshly sorted MuSCs from aged mice, NR diet): reduction of the nuclear damage response was confirmed
- muscle regeneration after CTX-induced muscle damage (H/E) ([3]; aged mice, 7 and 14 days of regeneration, FIG. 3H): accelerated muscle regeneration
- PAX7-positive MuSCs after CTX-induced damage ([3]; aged mice, FIG. 3I-J): increases in PAX7-positive MuSCs
- embryonic myosin heavy chain (eMyHC) staining, newly regenerated fibers ([3]; aged mice, 7 days after CTX-induced damage, FIG. 3L): improvements in embryonic myosin heavy chain staining
- MYOD1-positive PAX7 immunostained cells (stemness) ([3]; aged mice, 7 days after muscle damage, FIG. 3K): reduction in MYOD1-positive PAX7 immunostained cells
- muscle regeneration after CTX-induced muscle damage ([3]; young mice): accelerated muscle regeneration
- PAX7-positive MuSCs after CTX-induced damage ([3]; young mice): trend to increase
- dependence of NR effects on cell senescence on prohibitins ([4]; C2C12, Phb1 and Phb2 shRNA knockdown with 6-hour NR treatment, overexpression, FIG. 5C,D): PHB-dependent
- Phb1 and Phb2 expression ([4]; C2C12 myoblasts, NR treatment, FIG. 5A): induced Phb1 and Phb2 expression
- UPRmt markers (HSP60, CLPP) ([4]; NR-treated C2C12 mouse myoblasts, FIG. 5A): similarly induced
